Key:
A549 = test: Antiproliferative activity against human A549 cells assessed as cell growth by MTT assay; format: functional, cell-based
HepG2 = test: Antiproliferative activity against human HepG2 cells assessed as cell growth by MTT assay; format: functional, cell-based
[1] = target: Epidermal growth factor receptor (Homo sapiens, UniProt P00533); test: Inhibition of recombinant EGFR (unknown origin) assessed as inhibition of autophosphorylation after 1 hr by DELFIA/Time-resolved fluorometry
Sequence of Epidermal growth factor receptor (P00533 whole entry): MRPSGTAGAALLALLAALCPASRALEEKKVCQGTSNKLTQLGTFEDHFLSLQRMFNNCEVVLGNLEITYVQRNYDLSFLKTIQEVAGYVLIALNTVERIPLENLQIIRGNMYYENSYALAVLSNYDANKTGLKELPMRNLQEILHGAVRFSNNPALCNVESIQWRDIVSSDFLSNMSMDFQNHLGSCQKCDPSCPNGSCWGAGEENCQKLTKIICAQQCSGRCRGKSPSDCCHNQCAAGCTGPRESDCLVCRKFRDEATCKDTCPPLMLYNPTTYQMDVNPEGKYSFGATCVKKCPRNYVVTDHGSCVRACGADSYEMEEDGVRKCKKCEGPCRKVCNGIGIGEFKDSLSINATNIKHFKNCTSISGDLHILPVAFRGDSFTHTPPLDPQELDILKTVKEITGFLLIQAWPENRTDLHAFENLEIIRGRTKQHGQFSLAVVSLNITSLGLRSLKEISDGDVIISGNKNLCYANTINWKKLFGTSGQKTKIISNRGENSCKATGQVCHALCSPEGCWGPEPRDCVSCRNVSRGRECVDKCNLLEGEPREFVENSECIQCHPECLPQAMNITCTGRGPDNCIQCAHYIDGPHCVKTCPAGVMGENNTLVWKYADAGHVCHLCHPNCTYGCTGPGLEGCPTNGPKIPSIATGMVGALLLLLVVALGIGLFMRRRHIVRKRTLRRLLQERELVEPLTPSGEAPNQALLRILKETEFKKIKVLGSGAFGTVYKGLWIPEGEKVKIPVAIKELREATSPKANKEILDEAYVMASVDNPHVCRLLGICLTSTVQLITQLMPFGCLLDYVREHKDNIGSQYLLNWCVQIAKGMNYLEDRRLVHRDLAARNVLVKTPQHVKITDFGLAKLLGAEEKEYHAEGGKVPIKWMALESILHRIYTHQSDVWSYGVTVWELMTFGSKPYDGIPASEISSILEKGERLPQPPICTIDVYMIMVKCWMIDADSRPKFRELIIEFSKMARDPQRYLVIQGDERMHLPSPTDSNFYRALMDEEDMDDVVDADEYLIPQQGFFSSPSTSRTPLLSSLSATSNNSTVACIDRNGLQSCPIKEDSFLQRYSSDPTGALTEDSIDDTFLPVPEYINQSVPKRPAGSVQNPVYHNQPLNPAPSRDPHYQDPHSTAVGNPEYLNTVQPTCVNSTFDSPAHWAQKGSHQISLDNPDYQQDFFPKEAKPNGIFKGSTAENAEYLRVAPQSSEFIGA

| IC50 (A549) [µM] | IC50 (HepG2) [µM] | IC50 [1] [µM] | Structure (SMILES) |
| --- | --- | --- | --- |
| 34.5 | 18.2 |  | O=C1N=C(N2CCC[C@H]2C(=O)Nc2ccc3ncnc(Nc4cccc(Cl)c4)c3c2)S/C1=C/c1ccccc1F |
| 6.1 | 4.12 | 8.1 | O=C1N=C(N2CCC[C@H]2C(=O)Nc2ccc3ncnc(Nc4cccc(Cl)c4)c3c2)S/C1=C/c1cccs1 |
| > 50 | > 50 | 31.4 | O=C1N=C(N2CCC[C@H]2C(=O)Nc2ccc3ncnc(Nc4cccc(Cl)c4)c3c2)S/C1=C/c1ccc(Br)s1 |
| 8.5 | 4.5 | 6.5 | Cc1cccc(/C=C2/SC(N3CCC[C@H]3C(=O)Nc3ccc4ncnc(Nc5cccc(Cl)c5)c4c3)=NC2=O)n1 |
| 3.1 | 2.7 | 3.1 | O=C1N=C(N2CCC[C@H]2C(=O)Nc2ccc3ncnc(Nc4cccc(Cl)c4)c3c2)S/C1=C/c1cccc(Br)n1 |
| 10.8 | 6.4 | 7.4 | O=C1N=C(N2CCC[C@H]2C(=O)Nc2ccc3ncnc(Nc4cccc(Cl)c4)c3c2)S/C1=C/c1cccnc1Cl |
| 10.4 | 8.5 | 9.8 | O=C1N=C(N2CCC[C@H]2C(=O)Nc2ccc3ncnc(Nc4cccc(Cl)c4)c3c2)S/C1=C/c1cccnc1 |
| > 50 | 22.9 |  | O=C1N=C(N2CCC[C@H]2C(=O)Nc2ccc3ncnc(Nc4cccc(Cl)c4)c3c2)S/C1=C/c1ccc2ccccc2n1 |
| > 50 | 28.1 |  | O=C1N=C(N2CCC[C@H]2C(=O)Nc2ccc3ncnc(Nc4cccc(Cl)c4)c3c2)S/C1=C/c1ccccc1Cl |
| > 50 | 27.6 |  | O=C1N=C(N2CCC[C@H]2C(=O)Nc2ccc3ncnc(Nc4cccc(Cl)c4)c3c2)S/C1=C/c1cccc(Cl)c1 |
| > 50 | 24.3 |  | O=C1N=C(N2CCC[C@H]2C(=O)Nc2ccc3ncnc(Nc4cccc(Cl)c4)c3c2)S/C1=C/c1ccccc1Br |
| > 50 | 21.3 |  | O=C1N=C(N2CCC[C@H]2C(=O)Nc2ccc3ncnc(Nc4cccc(Cl)c4)c3c2)S/C1=C/c1cccc(Br)c1 |
| 18.7 | 10.5 | 7.6 | O=C1N=C(N2CCC[C@H]2C(=O)Nc2ccc3ncnc(Nc4cccc(Cl)c4)c3c2)S/C1=C/c1ccc(Cl)cc1 |
| > 50 | 22.1 |  | COc1ccccc1/C=C1/SC(N2CCC[C@H]2C(=O)Nc2ccc3ncnc(Nc4cccc(Cl)c4)c3c2)=NC1=O |
| > 50 | 32.5 |  | O=C1N=C(N2CCC[C@H]2C(=O)Nc2ccc3ncnc(Nc4cccc(Cl)c4)c3c2)S/C1=C/c1ccccc1[N+](=O)[O-] |
| 31.7 | 19 |  | COc1ccc(/C=C2/SC(N3CCC[C@H]3C(=O)Nc3ccc4ncnc(Nc5cccc(Cl)c5)c4c3)=NC2=O)cc1 |
| 24.2 | 15.4 | 13.2 | O=C1N=C(N2CCC[C@H]2C(=O)Nc2ccc3ncnc(Nc4cccc(Cl)c4)c3c2)S/C1=C/c1ccc(-c2ccccc2)cc1 |

— ChEMBL document CHEMBL3585298, “Combination of 4-anilinoquinazoline and rhodanine as novel epidermal growth factor receptor tyrosine kinase inhibitors” (Bioorg Med Chem, 2015)
